The values that follow are results of earlier work, collected in patent publication US20170071869A1 (Teva Pharmaceutical Industries Ltd., priority 2014, published 2017).

The test system of data set [1] is genes related to antigen presentation (NFkB pathway). Conditions: mainly via the NFkB pathway.

On to `CCN(C(=O)c1c(O)c2c(Cl)cccc2n(C)c1=O)c1ccccc1` [Laquinimod], for which the oral bioavailability entry is “high oral bioavailability”. For the same compound, the “suppression of genes related to antigen presentation and corresponding inflammatory pathways” value in data set [1] is given as “induced suppression of genes related to antigen presentation”.
